Data on nine compounds can be found in ChEMBL document CHEMBL1221314, “Potential anti-inflammatory phenolic glycosides from the medicinal plant Moringa oleifera fruits” (Bioorg Med Chem, 2010).

The structures appear in SMILES notation. A value given as a limit tells only on which side of the number the result lay.

The first data set has as its system RAW264.7. In words: Antiinflammatory activity in mouse RAW264.7 cells assessed as inhibition of LPS-induced NO production incubated 30 mins prior to LPS challenge. The format is functional, cell-based.
Conditions: not given
For the compound `CC(=O)O[C@H]1[C@H](Oc2ccc(CN=C=S)cc2)O[C@@H](C)[C@H](O)[C@H]1O`, the IC50 (in general, the concentration at which inhibition is half-maximal) worked out at 1.67 µM.
Still for that read-out and setting: the result for `CNC(=N)NCCC[C@H](N)C(=O)O` reads 25.5 µM.
The same measure, in the same setting: the result for `CC(=O)O[C@@H]1[C@@H](O)[C@H](C)O[C@@H](Oc2ccc(CN=C=S)cc2)[C@@H]1O` reads 2.66 µM; that for `C[C@@H]1O[C@@H](Oc2ccc(CN=C=S)cc2)[C@H](O)[C@H](O)[C@H]1O`, 14.4 µM.
Same read-out and setting: with `CC(=O)O[C@@H]1[C@@H](O)[C@@H](O)[C@H](Oc2ccc(CN=C=S)cc2)O[C@H]1C` the figure was 2.71 µM.
Consider `C[C@@H]1O[C@@H](Oc2ccc(CC#N)cc2)[C@H](O)[C@H](O)[C@H]1O` [NIAZIRIN], for which the IC50 is above 45 µM.
Still for that read-out and setting: the result for `COC(=S)NCc1ccc(O[C@@H]2O[C@@H](C)[C@H](OC(C)=O)[C@@H](O)[C@H]2O)cc1` [NIAZICIN A] reads above 45 µM.
On the same count and under the same terms, the result for `CSC(=O)NCc1ccc(O[C@@H]2O[C@@H](C)[C@H](O)[C@@H](O)[C@H]2O)cc1` reads above 45 µM; that for `COC(=S)NCc1ccc(O[C@@H]2O[C@@H](C)[C@H](O)[C@@H](O)[C@H]2O)cc1` [NIAZININ A], above 45 µM.

In another data set the test system is RAW264.7. In words: Antiinflammatory activity in mouse RAW264.7 cells assessed as inhibition of LPS-induced NO production at 5 uM incubated 30 mins prior to LPS challenge. The format is functional.
Conditions: not given
In the case of `C[C@@H]1O[C@@H](Oc2ccc(CC#N)cc2)[C@H](O)[C@H](O)[C@H]1O` [NIAZIRIN], the inhibition (in general, the percentage by which the read-out fell short of the control) at 5 µM is below 1%.
Still for that read-out and setting: the result for `COC(=S)NCc1ccc(O[C@@H]2O[C@@H](C)[C@H](OC(C)=O)[C@@H](O)[C@H]2O)cc1` [NIAZICIN A] reads 17.3%.
With `CSC(=O)NCc1ccc(O[C@@H]2O[C@@H](C)[C@H](O)[C@@H](O)[C@H]2O)cc1`, the inhibition at 5 µM came to 24.3%.
Still for that read-out and setting: the result for `COC(=S)NCc1ccc(O[C@@H]2O[C@@H](C)[C@H](O)[C@@H](O)[C@H]2O)cc1` [NIAZININ A] reads below 1%.

The test system of a further data set is RAW264.7. The data set can be described thus: Cytotoxicity against mouse RAW264.7 cells after 24 hrs by SRB assay. The note with it: raw264.7, 24 h. In kind it is cell-based. Background: In SRB staining, fixed cells bind dye roughly in proportion to their protein.
With `CC(=O)O[C@H]1[C@H](Oc2ccc(CN=C=S)cc2)O[C@@H](C)[C@H](O)[C@H]1O`, the Activity entry is “Non-toxic”.
Consider `CC(=O)O[C@@H]1[C@@H](O)[C@H](C)O[C@@H](Oc2ccc(CN=C=S)cc2)[C@@H]1O`, for which the Activity entry is “Non-toxic”.
For the compound `CC(=O)O[C@@H]1[C@@H](O)[C@@H](O)[C@H](Oc2ccc(CN=C=S)cc2)O[C@H]1C`, the Activity entry is “Non-toxic”.

Another data set has as its system RAW264.7. In words: Antiinflammatory activity in mouse RAW264.7 cells assessed as inhibition of LPS-induced iNOS expression incubated 30 mins prior to LPS challenge by Western blotting.
Conditions: not given
In kind it is functional, cell-based. On the technique in general: In western blotting, separated proteins are transferred to a membrane and probed.
Consider `CC(=O)O[C@H]1[C@H](Oc2ccc(CN=C=S)cc2)O[C@@H](C)[C@H](O)[C@H]1O`, for which the Activity entry is “Dose-dependent effect”.
The same measure, in the same setting: with `CC(=O)O[C@@H]1[C@@H](O)[C@H](C)O[C@@H](Oc2ccc(CN=C=S)cc2)[C@@H]1O` the entry was “Dose-dependent effect”; with `C[C@@H]1O[C@@H](Oc2ccc(CN=C=S)cc2)[C@H](O)[C@H](O)[C@H]1O`, “Dose-dependent effect”; with `CC(=O)O[C@@H]1[C@@H](O)[C@@H](O)[C@H](Oc2ccc(CN=C=S)cc2)O[C@H]1C`, “Dose-dependent effect”.
